Tests used:
VRK1 = target: T1, VRK1 (Homo sapiens, UniProt Q99986); assay: biochemical; conditions: read-out: % enzyme activity, 1 μM; Run 1, Run 2
T1 sequence (Q99986 1-396): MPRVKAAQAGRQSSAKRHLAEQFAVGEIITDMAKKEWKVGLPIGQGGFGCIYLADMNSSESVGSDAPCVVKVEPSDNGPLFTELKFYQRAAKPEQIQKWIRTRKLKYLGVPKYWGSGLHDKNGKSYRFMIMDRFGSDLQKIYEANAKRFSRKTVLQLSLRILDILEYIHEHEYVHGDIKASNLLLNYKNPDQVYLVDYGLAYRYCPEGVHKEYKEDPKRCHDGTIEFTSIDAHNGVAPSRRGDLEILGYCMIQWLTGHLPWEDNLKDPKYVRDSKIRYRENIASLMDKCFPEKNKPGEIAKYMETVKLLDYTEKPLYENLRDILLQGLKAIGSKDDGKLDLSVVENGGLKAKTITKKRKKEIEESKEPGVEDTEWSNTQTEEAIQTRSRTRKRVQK

BMPR2 = target: T2, BMPR2 (Homo sapiens, UniProt Q13873); assay: 375-member kinase panel; format: biochemical; conditions: Run 1, Run 2; for % enzyme activity: 1 μM; for remaining activity at 1 µM: read-out: % enzyme activity, 1 μM
T2 construct: purchased Reaction Biology Corporation
T2 sequence (Q13873 27-1038): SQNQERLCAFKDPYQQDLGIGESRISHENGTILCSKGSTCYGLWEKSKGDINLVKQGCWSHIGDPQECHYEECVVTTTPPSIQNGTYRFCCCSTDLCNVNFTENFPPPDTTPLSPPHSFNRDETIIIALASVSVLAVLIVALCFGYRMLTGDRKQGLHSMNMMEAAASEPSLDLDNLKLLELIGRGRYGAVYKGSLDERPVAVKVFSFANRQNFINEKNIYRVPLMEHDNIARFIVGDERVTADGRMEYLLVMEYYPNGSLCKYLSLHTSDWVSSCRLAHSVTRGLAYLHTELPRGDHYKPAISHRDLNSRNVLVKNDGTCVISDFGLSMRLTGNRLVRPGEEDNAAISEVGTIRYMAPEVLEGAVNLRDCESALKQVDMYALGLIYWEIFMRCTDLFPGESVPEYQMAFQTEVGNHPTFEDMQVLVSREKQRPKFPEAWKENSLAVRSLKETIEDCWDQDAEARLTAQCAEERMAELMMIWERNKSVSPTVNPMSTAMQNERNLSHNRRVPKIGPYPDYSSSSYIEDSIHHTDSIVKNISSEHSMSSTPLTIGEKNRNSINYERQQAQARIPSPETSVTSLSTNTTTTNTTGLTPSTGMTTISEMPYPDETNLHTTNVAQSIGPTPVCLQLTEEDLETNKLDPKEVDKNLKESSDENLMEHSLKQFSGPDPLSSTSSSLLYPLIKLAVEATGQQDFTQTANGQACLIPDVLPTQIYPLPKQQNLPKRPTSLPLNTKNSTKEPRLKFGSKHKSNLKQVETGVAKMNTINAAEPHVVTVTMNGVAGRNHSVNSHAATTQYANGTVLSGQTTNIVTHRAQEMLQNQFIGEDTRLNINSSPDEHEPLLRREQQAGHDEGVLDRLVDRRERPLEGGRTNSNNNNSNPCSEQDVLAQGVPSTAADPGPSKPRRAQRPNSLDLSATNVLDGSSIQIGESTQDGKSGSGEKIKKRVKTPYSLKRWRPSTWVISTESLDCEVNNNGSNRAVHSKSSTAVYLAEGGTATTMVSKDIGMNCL

EPHA7 = EPHA7 (Homo sapiens, UniProt Q15375); conditions: 1 μM; Run 1, Run 2
EPHA7, sequence (Q15375 28-998): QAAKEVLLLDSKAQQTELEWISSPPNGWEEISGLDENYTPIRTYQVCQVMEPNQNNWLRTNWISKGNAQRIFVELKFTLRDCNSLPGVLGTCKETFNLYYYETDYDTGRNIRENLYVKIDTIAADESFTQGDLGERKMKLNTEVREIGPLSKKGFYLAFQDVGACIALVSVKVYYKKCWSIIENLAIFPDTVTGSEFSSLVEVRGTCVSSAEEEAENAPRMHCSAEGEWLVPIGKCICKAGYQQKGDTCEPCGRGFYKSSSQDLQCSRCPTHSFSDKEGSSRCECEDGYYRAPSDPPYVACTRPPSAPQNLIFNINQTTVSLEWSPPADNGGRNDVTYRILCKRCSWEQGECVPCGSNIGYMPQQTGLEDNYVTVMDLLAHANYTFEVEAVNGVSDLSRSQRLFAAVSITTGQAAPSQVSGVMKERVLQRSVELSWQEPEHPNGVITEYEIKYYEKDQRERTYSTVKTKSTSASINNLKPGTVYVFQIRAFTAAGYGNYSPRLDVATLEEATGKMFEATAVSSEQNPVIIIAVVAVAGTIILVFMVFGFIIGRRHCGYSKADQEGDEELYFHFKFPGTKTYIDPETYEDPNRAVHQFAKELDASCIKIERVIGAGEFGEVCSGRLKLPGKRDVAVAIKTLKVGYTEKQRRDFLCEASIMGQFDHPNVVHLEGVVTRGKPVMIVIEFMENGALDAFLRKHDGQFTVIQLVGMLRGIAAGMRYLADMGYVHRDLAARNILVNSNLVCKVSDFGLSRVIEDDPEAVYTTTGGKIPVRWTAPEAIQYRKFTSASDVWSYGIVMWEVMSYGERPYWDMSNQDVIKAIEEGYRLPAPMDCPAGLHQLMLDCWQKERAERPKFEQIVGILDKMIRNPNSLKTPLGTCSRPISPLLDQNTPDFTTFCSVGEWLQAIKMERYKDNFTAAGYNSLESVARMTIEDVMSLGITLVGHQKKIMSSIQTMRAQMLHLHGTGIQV

PKCd = PKCd (Homo sapiens, UniProt Q05655); conditions: 1 μM; Run 1, Run 2
PKCd, sequence (Q05655 whole entry): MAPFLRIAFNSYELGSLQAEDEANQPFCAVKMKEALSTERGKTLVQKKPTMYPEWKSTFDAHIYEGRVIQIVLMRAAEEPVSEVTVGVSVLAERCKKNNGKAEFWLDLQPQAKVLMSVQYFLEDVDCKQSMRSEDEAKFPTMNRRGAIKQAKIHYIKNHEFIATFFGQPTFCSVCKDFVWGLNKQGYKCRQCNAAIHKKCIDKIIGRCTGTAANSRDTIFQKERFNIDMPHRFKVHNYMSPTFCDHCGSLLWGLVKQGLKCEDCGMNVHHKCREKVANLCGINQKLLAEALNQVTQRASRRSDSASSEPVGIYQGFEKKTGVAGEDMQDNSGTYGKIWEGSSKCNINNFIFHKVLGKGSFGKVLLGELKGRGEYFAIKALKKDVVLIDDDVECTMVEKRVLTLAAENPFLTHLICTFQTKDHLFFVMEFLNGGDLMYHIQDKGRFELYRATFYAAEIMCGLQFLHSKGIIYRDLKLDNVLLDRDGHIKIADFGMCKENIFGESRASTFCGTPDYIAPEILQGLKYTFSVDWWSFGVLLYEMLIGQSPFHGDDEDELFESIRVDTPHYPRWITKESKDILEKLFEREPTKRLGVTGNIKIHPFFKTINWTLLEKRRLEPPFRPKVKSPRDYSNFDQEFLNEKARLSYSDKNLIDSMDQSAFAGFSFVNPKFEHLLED

EPHA1 = target: T3, EPHA1 (Homo sapiens, UniProt P21709); assay: biochemical; conditions: read-out: % enzyme activity, 1 μM; Run 1, Run 2
T3 sequence (P21709 26-976): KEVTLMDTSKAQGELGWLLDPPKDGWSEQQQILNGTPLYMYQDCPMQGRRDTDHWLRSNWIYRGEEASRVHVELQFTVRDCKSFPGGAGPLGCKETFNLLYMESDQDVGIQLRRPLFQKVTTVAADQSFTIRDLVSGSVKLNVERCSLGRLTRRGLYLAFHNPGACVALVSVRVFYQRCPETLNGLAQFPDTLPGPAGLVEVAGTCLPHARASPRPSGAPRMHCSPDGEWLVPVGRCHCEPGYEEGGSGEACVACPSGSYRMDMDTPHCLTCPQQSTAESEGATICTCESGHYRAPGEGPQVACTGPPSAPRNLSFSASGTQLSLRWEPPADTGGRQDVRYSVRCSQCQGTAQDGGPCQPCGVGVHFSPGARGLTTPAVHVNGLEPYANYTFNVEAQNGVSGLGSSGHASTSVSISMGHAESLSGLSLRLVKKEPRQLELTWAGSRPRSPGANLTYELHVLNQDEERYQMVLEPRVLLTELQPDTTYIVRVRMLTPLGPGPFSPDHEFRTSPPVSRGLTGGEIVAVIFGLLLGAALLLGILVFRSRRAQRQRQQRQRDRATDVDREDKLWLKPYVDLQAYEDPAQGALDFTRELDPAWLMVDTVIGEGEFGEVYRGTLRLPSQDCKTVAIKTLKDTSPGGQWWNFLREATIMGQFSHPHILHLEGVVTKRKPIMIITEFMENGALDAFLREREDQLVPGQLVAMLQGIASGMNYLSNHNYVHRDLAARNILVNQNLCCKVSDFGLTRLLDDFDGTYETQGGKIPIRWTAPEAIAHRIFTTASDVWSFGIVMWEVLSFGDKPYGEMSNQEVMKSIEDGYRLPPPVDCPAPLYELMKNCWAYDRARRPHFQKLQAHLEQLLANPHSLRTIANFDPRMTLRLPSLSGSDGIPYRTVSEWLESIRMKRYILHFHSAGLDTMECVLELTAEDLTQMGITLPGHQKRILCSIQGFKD

STK21/CIT = STK21/CIT (Homo sapiens, UniProt O14578); conditions: 1 μM; Run 1, Run 2
STK21/CIT, sequence (O14578 whole entry): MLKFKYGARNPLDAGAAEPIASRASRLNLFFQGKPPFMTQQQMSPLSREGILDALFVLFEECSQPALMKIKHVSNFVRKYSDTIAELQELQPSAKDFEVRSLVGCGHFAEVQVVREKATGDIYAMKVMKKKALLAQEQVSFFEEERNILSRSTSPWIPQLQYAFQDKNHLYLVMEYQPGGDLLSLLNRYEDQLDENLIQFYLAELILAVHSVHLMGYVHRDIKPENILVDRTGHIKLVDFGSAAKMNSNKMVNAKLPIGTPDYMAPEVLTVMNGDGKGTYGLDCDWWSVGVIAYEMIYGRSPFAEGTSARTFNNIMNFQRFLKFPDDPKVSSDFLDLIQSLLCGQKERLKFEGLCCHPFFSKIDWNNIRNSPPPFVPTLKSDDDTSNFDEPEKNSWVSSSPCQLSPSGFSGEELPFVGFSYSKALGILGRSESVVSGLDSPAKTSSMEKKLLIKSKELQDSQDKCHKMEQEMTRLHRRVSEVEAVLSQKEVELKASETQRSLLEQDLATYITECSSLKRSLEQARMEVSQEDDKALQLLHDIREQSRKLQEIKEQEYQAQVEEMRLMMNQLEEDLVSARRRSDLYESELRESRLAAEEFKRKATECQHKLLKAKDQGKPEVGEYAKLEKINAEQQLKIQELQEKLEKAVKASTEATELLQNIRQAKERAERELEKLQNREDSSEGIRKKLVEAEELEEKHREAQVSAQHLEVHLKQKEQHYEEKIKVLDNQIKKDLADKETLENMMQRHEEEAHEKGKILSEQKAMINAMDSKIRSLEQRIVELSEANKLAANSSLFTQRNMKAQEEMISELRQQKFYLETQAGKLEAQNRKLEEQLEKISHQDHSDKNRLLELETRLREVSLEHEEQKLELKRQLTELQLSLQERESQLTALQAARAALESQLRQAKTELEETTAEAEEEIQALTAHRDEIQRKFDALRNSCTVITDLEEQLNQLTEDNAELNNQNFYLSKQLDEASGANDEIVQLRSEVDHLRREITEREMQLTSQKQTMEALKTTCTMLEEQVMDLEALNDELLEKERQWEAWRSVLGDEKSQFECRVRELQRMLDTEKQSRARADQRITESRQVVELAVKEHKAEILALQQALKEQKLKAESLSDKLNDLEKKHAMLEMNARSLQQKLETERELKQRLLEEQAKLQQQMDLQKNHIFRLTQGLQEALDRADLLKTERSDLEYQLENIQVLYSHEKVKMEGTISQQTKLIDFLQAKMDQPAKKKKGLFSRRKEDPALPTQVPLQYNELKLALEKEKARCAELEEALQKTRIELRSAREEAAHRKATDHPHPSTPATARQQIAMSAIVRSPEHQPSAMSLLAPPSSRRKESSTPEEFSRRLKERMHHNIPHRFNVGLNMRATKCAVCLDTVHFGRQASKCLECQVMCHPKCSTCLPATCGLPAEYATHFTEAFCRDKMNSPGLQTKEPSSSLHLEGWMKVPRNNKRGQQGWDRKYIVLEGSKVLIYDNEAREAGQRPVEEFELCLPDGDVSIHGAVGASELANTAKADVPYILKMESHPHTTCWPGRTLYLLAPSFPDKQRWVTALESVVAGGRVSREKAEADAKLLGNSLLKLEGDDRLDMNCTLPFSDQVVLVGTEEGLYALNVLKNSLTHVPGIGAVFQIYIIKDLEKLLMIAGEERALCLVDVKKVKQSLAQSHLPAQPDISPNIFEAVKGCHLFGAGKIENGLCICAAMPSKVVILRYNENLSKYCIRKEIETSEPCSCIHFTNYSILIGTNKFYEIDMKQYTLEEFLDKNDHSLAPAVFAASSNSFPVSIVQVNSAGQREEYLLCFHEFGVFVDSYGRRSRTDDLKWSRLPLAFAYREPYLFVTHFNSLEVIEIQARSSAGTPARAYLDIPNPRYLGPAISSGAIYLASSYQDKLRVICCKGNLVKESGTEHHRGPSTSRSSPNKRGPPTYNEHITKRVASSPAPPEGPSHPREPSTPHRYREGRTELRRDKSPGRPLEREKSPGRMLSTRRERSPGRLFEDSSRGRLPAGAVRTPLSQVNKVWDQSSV

ROCK2 = ROCK2 (Homo sapiens, UniProt O75116); assay: biochemical; conditions: read-out: % enzyme activity, 1 μM; Run 1, Run 2
LYN B = LYN B (Homo sapiens, UniProt P07948); conditions: 1 μM; Run 1, Run 2
LYN B, sequence (P07948 1-491 isoform P07948-2): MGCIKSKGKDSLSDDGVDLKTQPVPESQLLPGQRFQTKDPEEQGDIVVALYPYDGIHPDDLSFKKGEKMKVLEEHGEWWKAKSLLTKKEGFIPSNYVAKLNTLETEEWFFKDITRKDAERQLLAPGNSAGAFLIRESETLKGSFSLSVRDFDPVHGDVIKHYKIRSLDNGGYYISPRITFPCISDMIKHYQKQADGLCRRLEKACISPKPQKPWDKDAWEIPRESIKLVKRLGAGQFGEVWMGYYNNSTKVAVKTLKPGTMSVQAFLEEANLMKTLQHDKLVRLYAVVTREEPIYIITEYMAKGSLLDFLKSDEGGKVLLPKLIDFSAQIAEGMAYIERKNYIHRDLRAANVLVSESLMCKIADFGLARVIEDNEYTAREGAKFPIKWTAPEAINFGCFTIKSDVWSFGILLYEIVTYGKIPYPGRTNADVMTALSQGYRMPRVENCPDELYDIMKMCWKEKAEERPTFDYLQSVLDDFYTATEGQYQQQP

PKAcb = PKAcb (Homo sapiens, UniProt P22694); conditions: 1 μM; Run 1, Run 2
PKN3/PRK3 = PKN3/PRK3 (Homo sapiens, UniProt Q6P5Z2); conditions: 1 μM; Run 1, Run 2
RAF1 = RAF1 (Homo sapiens, UniProt P04049); conditions: 1 μM; Run 1, Run 2
RAF1, sequence (P04049 whole entry): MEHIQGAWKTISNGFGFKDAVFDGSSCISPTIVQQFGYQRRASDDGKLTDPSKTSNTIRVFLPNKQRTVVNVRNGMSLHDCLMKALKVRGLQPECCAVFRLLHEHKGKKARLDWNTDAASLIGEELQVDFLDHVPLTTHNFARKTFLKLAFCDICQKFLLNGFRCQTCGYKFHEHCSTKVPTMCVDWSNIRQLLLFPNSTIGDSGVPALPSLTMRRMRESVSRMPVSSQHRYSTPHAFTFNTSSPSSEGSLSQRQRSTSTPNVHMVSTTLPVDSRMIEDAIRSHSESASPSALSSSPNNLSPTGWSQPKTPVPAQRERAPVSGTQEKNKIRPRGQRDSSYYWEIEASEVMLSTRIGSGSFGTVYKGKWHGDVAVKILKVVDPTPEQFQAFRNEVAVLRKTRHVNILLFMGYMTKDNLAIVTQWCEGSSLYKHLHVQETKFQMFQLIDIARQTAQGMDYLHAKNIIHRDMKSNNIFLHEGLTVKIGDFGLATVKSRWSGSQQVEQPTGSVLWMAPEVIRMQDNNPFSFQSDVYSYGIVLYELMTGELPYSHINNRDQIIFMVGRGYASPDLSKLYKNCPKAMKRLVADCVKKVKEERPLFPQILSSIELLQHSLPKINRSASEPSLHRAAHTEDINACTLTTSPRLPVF

CDK3/cyclin E2 = CDK3/cyclin E2 (Homo sapiens, UniProt Q00526); conditions: 1 μM; Run 1, Run 2

Row | SMILES | remaining activity at 1 µM (VRK1) | % enzyme activity (BMPR2) | remaining activity at 1 µM (BMPR2) | % enzyme activity (EPHA7) | % enzyme activity (PKCd) | remaining activity at 1 µM (EPHA1) | % enzyme activity (STK21/CIT) | remaining activity at 1 µM (ROCK2) | % enzyme activity (LYN B) | % enzyme activity (PKAcb) | % enzyme activity (PKN3/PRK3) | % enzyme activity (RAF1) | % enzyme activity (CDK3/cyclin E2)
1 | COc1cc(-c2cncc(-c3ccc(N4CCN(C)CC4)cc3)c2C)cc(F)c1C(N)=O [Compound 26a, 2-Fluoro-6-methoxy-4-(4-methyl-5-(4-(4-methylpiperazin-1-yl)phenyl)pyridin-3-yl)benzamide] | 104% | 88.40% | 89.1% | 98.85% | 97.72% | 97.5% | 84.42% | 116% | 96.56% | 95.19% | 93.55% | 78.57% | 88.05%
2 | COc1cc(-c2cncc(-c3ccc(N4C[C@@H](C)N(C)[C@@H](C)C4)cc3)c2C)cc(F)c1C(N)=O [Compound 26c, 2-Fluoro-6-methoxy-4-(4-methyl-5-(4-((3R,5S)-3,4,5-trimethylpiperazin-1-yl)phenyl)pyridin-3-yl)benzamide] | 102% | 100.11% | 104% | 98.36% | 100.12% | 93.3% | 84.97% | 101% | 97.80% | 96.20% | 96.44% | 83.85% | 83.94%
